Patent publication US20010009926A1, “Mesozeaxanthin formulations for treatment of retinal disorders” (THE HOWARD FOUNDATION, priority 1993, published 2001)

How the values were obtained:
Type in all cases: in vivo, human
macular pigment [1] = experiment: Macular pigment optical density by heterochromatic flicker photometry during lutein supplementation
Procedure: A trial was conducted to determine if dietary supplementation with lutein and zeaxanthin effectively can change the pigment levels in the macula. The optical density of the macula pigment was measured for each subject using the method of flicker photometry (Bone and Sparrock 1971; Bone et al 1992). The concentration of pigment in the macula is proportioned to its optical density and the actual amount of pigment was assumed to be proportional to concentration. Thus, optical density was taken as a measure of the total amount of pigment.
(§1) Two healthy adult males (of age/weight 42 year/60 kg and 51 years/61 kg) ingested the equivalent of 30 mg of lutein per day in the form of lutein esters (source: marigold flowers) suspended in 2 ml of canola oil. This was continued over a period of 138 days and then the dose of lutein was discontinued. Chemical analysis has shown that the product contains approximately 97% lutein—and 3% zeaxanthin. Fasting serum lutein/zeaxanthin levels of both individuals were determined by conventional HPLC on the morning of the first dose as a measure of base line. Blood samples were drawn at 2-3 hour intervals throughout the first day for both subjects and then daily for the next three days. Following the first week of supplementation, blood samples were drawn weekly. Blood was collected into a standard Vacutainer serum separator tube containing no anticoagulant. After allowing about 30 min for coagulation, the sample was centrifuged for 10 minutes and the serum removed by pipette. Serum samples were stored at −20° C. prior to analysis. Carotenoids ware extracted from the serum by a minor modification of widely used methods (Guiliano et al, 1993; Handelmann et al, 1992), 200 μl aliquots of serum were diluted with 2 mL of 50% ethanol/water to ensure precipitation of protein components. 20 μl of an internal standard, monohexyl lutein ether, containing about 90 ng, was added to the solution at this point for quantification of the caratenoids by HPLC. This solution was extracted 3 times with 2 mL portions of hexane by vortexing the sample for 1 min followed by centrifuging for 5 minutes and pipetting off the hexane layer. The three portions of hexane were dried under a stream of nitrogen gas and stared under nitrogen at −20° C. until analysis was completed.
The optical density of the macular pigment was measured for each subject using the method of heterochomatic flicker photometry (Bone and Sparrock, 1971; Bone et al, 1992). The concentration of pigment in the macula is proportional to its optical density and the actual amount of pigment was assumed to be proportional to concentration. Thus optical density was taken to be a measure of the total amount of pigment.
In the flicker method, a small visual stimulus is presented to the eye which alternates in wavelength between 460 nm, the peak absorbance wavelength of the macular pigment, and 540 nm where pigment absorbance is zero (Bone et al., 1992). Above a certain frequency, color fusion occurs but the stimulus continues to flicker. At a higher frequency, a critical condition can be reached where flicker can be eliminated only if the two wavelength components are matched in luminance. If the stimulus is viewed peripherally, so that the image falls outside the macula, neither wavelength is attenuated by the macular pigment. However, if the stimulus is viewed centrally, the intensity of the 460 nm light must be increased to compensate for absorption by the macular pigment in order to achieve a luminance match. Thus it is possible to determine the optical density of a subject's macular pigment at the peak wavelength, or indeed any other wavelength.
The apparatus consisted of a two-channel Maxwellian view system based on a single light source, a 75 W xenon arc lamp. The wavelengths of the two channels were determined by 460 nm and 540 nm interference filters respectively, having half-widths of 7 and 9 nm. […]

[2] = Skin colour observation during lutein supplementation; conditions: each subject; after several weeks of administration, 30 mg lutein per day
[3] = Serum lutein by HPLC during oral lutein ester supplementation; conditions: subjects three, equivalent of 30 mg lutein per day as lutein esters in canola oil, within the first week
Procedure: Serum lutein and zeaxanthin was measured by conventional HPLC.
as §1, with “Carotenoids ware extracted from the serum by a minor modification of widely used methods (Guiliano et al, 1993; Handelmann et al, 1992), 200 μl aliquots of serum were diluted with 2 mL of 50% ethanol/water to ensure precipitation of protein components.” left out, “This solution was extracted 3 times with 2 mL portions of hexane by vortexing the sample for 1 min followed by centrifuging for 5 minutes and pipetting off the hexane layer. The three portions of hexane were dried under a stream of nitrogen gas and stared under nitrogen at −20° C. until analysis was completed.” left out

macular pigment [4] = experiment: Macular pigment optical density by heterochromatic flicker photometry during lutein supplementation; conditions: 30 mg/day lutein ester, increased from 0.3

| skin colour of the palms of the hands [2] | increase in serum lutein concentration (factor) [3] | Molecule | day until which optical density continued to rise before plateau (macular pigment [1]; subject four, both eyes, dose discontinued at day 138) [days] | slope of macular pigment optical density (linear least squares fit) (macular pigment [1]; subject four, left eye, day -7 to day 83 of lutein supplementation) | macular pigment optical density, final average (macular pigment [1]; subject four, left eye, initial mean 0.76, p<0.001) | slope of macular pigment optical density (linear least squares fit) (macular pigment [1]; subject four, right eye, day -7 to day 83 of lutein supplementation) | macular pigment optical density, final average (macular pigment [1]; subject four, right eye, initial mean 0.66, p<0.001) | macular pigment optical density, final average (macular pigment [1]; subject three, left eye, average of 15 measurements over 18 days at end of experiment, initial values 0.57 and 0.58, p<0.0005) | slope of macular pigment optical density (linear least squares fit) (macular pigment [1]; subject three, left eye, day -7 to day 72 of lutein supplementation) | macular pigment optical density, final average (macular pigment [1]; subject three, right eye, average of 15 measurements over 18 days at end of experiment, initial values 0.57 and 0.58, p<0.0005) | day until which optical density continued to rise before plateau (macular pigment [1]; subject three, dose of lutein discontinued at day 138) [days] | macular pigment optical density (macular pigment [4]; subject one, both eyes, after 75 days, then plateau) | macular pigment optical density (macular pigment [4]; subject two, left eye only) |
| --- | --- | --- | --- | --- | --- | --- | --- | --- | --- | --- | --- | --- | --- |
| turned a noticeable yellow colour | about 10 times | CC1=C[C@H](O)CC(C)(C)[C@H]1/C=C/C(C)=C/C=C/C(C)=C/C=C/C=C(C)/C=C/C=C(C)/C=C/C1=C(C)C[C@@H](O)CC1(C)C [lutein] | 200 | 3.1×10^−3 absorbance units per week | 0.79 | 2.3×10^−3 absorbance units per week | 0.70 | 0.70 | 15.3×10^−3 absorbance units per week | 0.67 | ~180 |  |  |
|  |  | lutein ester |  |  |  |  |  |  |  |  |  | 0.5 | 0.5 |
